From US20190119282A1, “IMIDAZOPYRIDAZINES USEFUL AS INHIBITORS OF THE PAR-2 SIGNALING PATHWAY” (Vertex Pharmaceuticals Incorporated, priority 2013, published 2019) come the findings set out here.

The target in test [1] is T1, PAR2 (HT-29 cells, trypsin activation) (Homo sapiens, UniProt P55085).
T1 construct: host or cells: HT-29 cells
T1 sequence (P55085 26-397): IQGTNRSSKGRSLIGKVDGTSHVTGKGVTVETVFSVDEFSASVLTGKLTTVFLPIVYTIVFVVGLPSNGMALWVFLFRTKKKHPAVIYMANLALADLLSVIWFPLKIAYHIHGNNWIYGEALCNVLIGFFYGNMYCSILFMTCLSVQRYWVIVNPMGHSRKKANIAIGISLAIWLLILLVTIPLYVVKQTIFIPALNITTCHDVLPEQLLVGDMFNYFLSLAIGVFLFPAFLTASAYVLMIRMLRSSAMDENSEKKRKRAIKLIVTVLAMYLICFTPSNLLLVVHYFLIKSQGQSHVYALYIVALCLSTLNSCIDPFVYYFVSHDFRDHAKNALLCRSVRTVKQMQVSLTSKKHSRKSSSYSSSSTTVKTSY
As to the kind of experiment: Ca FLIPR TETRA assay, ANTAGONIST mode, stimulation with 3.1 U/mL trypsin. The class given is cell-based. Particulars: HT-29 cells, antagonist mode, stimulation with 3.1 U/mL trypsin. The gist of the method:
(§1)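 Cells plated overnight at 37 °C, 5% CO2 in 1% FBS medium; dye loading 45 min at 37 °C then 15 min r.t.; compound added from DMSO/HBSS dilution; first read for intrinsic Ca2+ activation; 30 min r.t. incubation; antagonist read after addition of the fixed activator (8 μM SLIGKV, 1 U/mL thrombin, 3.1 U/mL trypsin or 0.6 μM UTP).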

Test [2] deals with T2, PAR2 (HT-29 cells, SLIGKV activation) (Homo sapiens, UniProt P55085).
T2 construct: host or cells: HT-29 cells
T2 sequence (P55085 26-397): T1 sequence (P55085 26-397)
Briefly: Ca FLIPR TETRA assay, ANTAGONIST mode, stimulation with 8 μM SLIGKV. The class given is cell-based. Particulars: HT-29 cells, antagonist mode, stimulation with 8 μM SLIGKV. The gist of the method: as §1

For test [3], the system named is UTP-stimulated Ca2+ response in HT-29 cells. Briefly: Ca FLIPR TETRA assay, ANTAGONIST mode, stimulation with 0.6 μM UTP. The class given is cell-based, human. The following applies: Homo sapiens; HT-29 cells, antagonist mode, stimulation with 0.6 μM UTP. The gist of the method:
as §1

In test [4] the test system is Thrombin-stimulated Ca2+ response in HT-29 cells. As to the kind of experiment: Ca FLIPR TETRA assay, ANTAGONIST mode, stimulation with 1 U/mL Thrombin. The class given is cell-based, human. The following applies: Homo sapiens; HT-29 cells, antagonist mode, stimulation with 1 U/mL Thrombin. The gist of the method: as §1

With `CC(C)c1cc(-c2ccc(C(F)F)cc2)nn2cc(C(=O)N3CCN(C(=O)c4cn[nH]c4)CC3(C)C)nc12` [Compound I-295], the IC50 in test [1] was 0.0083 µM; in test [2], 0.0075 µM; in test [3], above 1 µM; in test [4], above 1 µM.

Take `CC(C)(C)c1cc(-c2ccc(F)cc2)nn2cc(C(=O)N3CCN(C(=O)c4nnn[nH]4)CC3(C)C)nc12` [Compound I-296]: the IC50 in test [1] is 0.0447 µM; in test [2], 0.032 µM; in test [3] it was above 1 µM; in test [4], above 1 µM.

Regarding `CC(C)(C)c1cc(-c2ccc(F)cc2)nn2cc(C(=O)N3CCN(C4(CO)CC4)C(=O)C3(C)C)nc12` [Compound I-297], the IC50 in test [1] is 0.0127 µM; in test [2], 0.0091 µM; in test [3], above 1 µM; in test [4] it was 0.3 µM.

Regarding `Cc1ccc(-c2cc(C(C)(C)C)c3nc(C(=O)N4CCNC(=O)C4(C)C)cn3n2)cc1F` [Compound I-298], the IC50 in test [1] is 0.0018 µM; in test [2], 0.0023 µM; in test [3] it was above 1 µM; in test [4] it was above 1 µM.

`Cc1nnc(C(=O)N2CCN(C(=O)c3cn4nc(-c5ccc(C(F)F)cc5)cc(C(C)C)c4n3)C(C)(C)C2)o1` [Compound I-299]: the IC50 in test [1] was 0.053 µM; in test [2] it was 0.0373 µM; in test [3] it was above 1 µM; in test [4] it was above 1 µM.

Turning to `CC(C)c1cc(-c2ccc(C(F)F)cc2)nn2cc(C(=O)N3CCNC(=O)C3(C)C)nc12` [Compound I-300], the IC50 in test [1] was 0.0265 µM; in test [2] it was 0.0277 µM; in test [3], above 1 µM; in test [4], above 1 µM.

In the case of `Cc1ccc(-c2cc(C(C)C)c3nc(C(=O)N4CCNC(=O)C4(C)C)cn3n2)cc1F` [Compound I-301], the IC50 in test [1] was 0.003 µM; in test [2] it was 0.003 µM; in test [3], above 1 µM; in test [4], above 1 µM.

For the compound `Cc1c[nH]nc1C(=O)N1CCN(C(=O)c2cn3nc(-c4ccc(F)cc4)cc(C(C)C)c3n2)C(C)(C)C1` [Compound I-302], the half-maximal inhibitory concentration (IC50) came to 0.013 µM in test [1], 0.0103 µM in test [2], 0.9 µM in test [3] and 1.1 µM in test [4].

As for `Cc1n[nH]cc1C(=O)N1CCN(C(=O)c2cn3nc(-c4ccc(F)cc4)cc(C(C)C)c3n2)C(C)(C)C1` [Compound I-304], the IC50 in test [1] is 0.0543 µM; in test [2] it was 0.0403 µM; in test [3] it was above 1 µM; in test [4], above 1 µM.

On to `CC(C)c1cc(-c2ccc(F)cc2)nn2cc(C(=O)N3CCN(C(=O)CC(C)(C)O)CC3(C)C)nc12` [Compound I-305], for which the IC50 in test [1] was 0.045 µM; in test [2], 0.033 µM; in test [3] it was above 1 µM; in test [4], above 1 µM.

Consider `CC(C)c1cc(-c2ccc(F)cc2)nn2cc(C(=O)N3CCN(C(=O)c4ccnnc4)CC3(C)C)nc12` [Compound I-306], for which the IC50 is 0.185 µM in test [1], 0.068 µM in test [2], above 1 µM in test [3] and above 1 µM in test [4].

Turning to `CC(C)c1cc(-c2ccc(F)cc2)nn2cc(C(=O)N3CCN(C(=O)c4cccnn4)CC3(C)C)nc12` [Compound I-307], the IC50 in test [1] was 0.042 µM; in test [2] it was 0.0528 µM; in test [3], above 1 µM; in test [4], above 1 µM.

Consider `CC(C)c1cc(-c2ccc(F)cc2)nn2cc(C(=O)N3CCN(C(=O)c4ccncc4)CC3(C)C)nc12` [Compound I-308], for which the IC50 is 0.0335 µM in test [1], 0.028 µM in test [2], above 1 µM in test [3] and above 1 µM in test [4].

Turning to `CC(C)c1cc(-c2ccc(F)cc2)nn2cc(C(=O)N3CCN(C(=O)c4cccnc4)CC3(C)C)nc12` [Compound I-309], the half-maximal inhibitory concentration (IC50) in test [1] was 0.019 µM; in test [2] it was 0.0175 µM; in test [3] it was above 1 µM; in test [4], above 1 µM.

On to `Cc1nc[nH]c1C(=O)N1CCN(C(=O)c2cn3nc(-c4ccc(F)cc4)cc(C(C)(C)C)c3n2)C(C)(C)C1` [Compound I-311], for which the IC50 was 0.0041 µM in test [1], 0.0068 µM in test [2], above 1 µM in test [3] and above 1 µM in test [4].

With `Cc1ncc(C(=O)N2CCN(C(=O)c3cn4nc(-c5ccc(F)cc5)cc(C(C)(C)C)c4n3)C(C)(C)C2)[nH]1` [Compound I-312], the IC50 was 0.0013 µM in test [1], 0.0013 µM in test [2], above 1 µM in test [3] and above 1 µM in test [4].

Regarding `CC(C)c1cc(-c2ccc(F)cc2)nn2cc(C(=O)N3CCN(C(=O)C(C)(O)C(F)(F)F)CC3(C)C)nc12` (centres unmarked) [Compound I-313], the IC50 in test [1] is 0.0114 µM; in test [2], 0.0152 µM; in test [3] it was above 1 µM; in test [4] it was above 1 µM.

`CC(C)c1cc(-c2ccc(F)cc2)nn2cc(C(=O)N3CCN(C(=O)C(C)(N)C(F)(F)F)CC3(C)C)nc12` (centres unmarked) [Compound I-314]: the IC50 was 0.0076 µM in test [1], 0.0104 µM in test [2], above 1 µM in test [3] and above 1 µM in test [4].

For `CC(C)(C)c1cc(-c2ccc(F)cc2)nn2cc(C(=O)N3CCN(C(=O)C(C)(O)C(F)(F)F)CC3(C)C)nc12` (centres unmarked) [Compound I-317], the IC50 is 0.0029 µM in test [1], 0.0034 µM in test [2], above 1 µM in test [3] and above 1 µM in test [4].

Take `CC(C)(C)c1cc(-c2ccc(F)cc2)nn2cc(C(=O)N3CCN(C(=O)C(C)(N)C(F)(F)F)CC3(C)C)nc12` (centres unmarked) [Compound I-318]: the IC50 in test [1] is 0.0022 µM; in test [2] it was 0.0017 µM; in test [3], above 1 µM; in test [4] it was above 1 µM.

For the compound `CC(C)(C)c1cc(-c2ccc(F)cc2)nn2cc(C(=O)N3CCN(C(=O)[C@H]4C[C@@](C)(O)C4)CC3(C)C)nc12` [Compound I-319], the IC50 came out at 0.0006 µM in test [1], 0.0004 µM in test [2], 0.95 µM in test [3] and 0.76 µM in test [4].

As to `CC(C)c1cc(-c2ccc(F)cc2)nn2cc(C(=O)N3CCN(C(=O)c4ccccn4)CC3(C)C)nc12` [Compound I-320], the half-maximal inhibitory concentration (IC50) in test [1] is 0.0142 µM; in test [2], 0.0071 µM; in test [3], above 1 µM; in test [4], above 1 µM.

Take `CC(C)c1cc(-c2ccc(F)cc2)nn2cc(C(=O)N3CCN(C(=O)c4ccon4)CC3(C)C)nc12` [Compound I-321]: the IC50 is 0.0028 µM in test [1], 0.0015 µM in test [2], above 1 µM in test [3] and above 1 µM in test [4].

With `CC(C)c1cc(-c2ccc(F)cc2)nn2cc(C(=O)N3CCN(C(=O)c4cncnc4)CC3(C)C)nc12` [Compound I-322], the half-maximal inhibitory concentration (IC50) in test [1] is 0.069 µM; in test [2] it was 0.0415 µM; in test [3], above 1 µM; in test [4], above 1 µM.

For `CC(C)c1cc(-c2ccc(F)cc2)nn2cc(C(=O)N3CCN(C(=O)c4ncccn4)CC3(C)C)nc12` [Compound I-323], the IC50 is 0.0555 µM in test [1], 0.0205 µM in test [2], above 1 µM in test [3] and above 1 µM in test [4].

Consider `Cc1nnc(C(=O)N2CCN(C(=O)c3cn4nc(-c5ccc(F)cc5)cc(C(C)C)c4n3)C(C)(C)C2)o1` [Compound I-324], for which the IC50 in test [1] was 0.0225 µM; in test [2] it was 0.0211 µM; in test [3] it was above 1 µM; in test [4], above 1 µM.
